Converted amounts (≈) assume the structure as drawn. Where two headings read alike, the source gives them in different places.
Assays:
C. krusei NCPF3876 = experiment: microbe, parasite or virus in culture; format: cell-based, Candida krusei; settings: Pichia kudriavzevii
Method in brief: (§1)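 MIC taken as lowest concentration inhibiting growth ≥50% relative to drug-free control, from OD530 after 24 hours at 37° C. Fungi at 0.5-5×10^5/mL were exposed to serially diluted compound in RPMI 1640/MOPS/2% glucose medium adjusted to pH 7.0.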

Candida auris TDG2211 = experiment: microbe, parasite or virus in culture; format: cell-based; settings: Candidozyma auris, TDG2211; Table 4, extended panel; 24 hours, ≥50% inhibition; read-out: MIC Candida auris TDG2211
Method in brief: (§2)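 MIC = lowest concentration inhibiting growth ≥50% relative to drug-free control, read by OD530 nm after 24 h at 37° C. Medium: RPMI 1640/MOPS/2% glucose, pH 7.0. Inoculum 0.5-5×10^5/mL.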

Candida auris TDG2506 = experiment: microbe, parasite or virus in culture; format: cell-based; settings: Candidozyma auris, TDG2506; Table 4, extended panel; 24 hours, ≥50% inhibition; read-out: MIC Candida auris TDG2506
Method in brief: as §2

Aspergillus strains = experiment: Aspergillus panel MIC, statement on the whole panel; format: cell-based; settings: Table 8, in words
Experimental: The compound of Example 2 (which corresponds to compound number 2) was tested against a panel of Aspergillus strains using a method analogous to that described above for the Candida Panel.

Candida auris TDG2512 = experiment: Candida panel MIC, serial dilution in 96-well plates; format: cell-based; settings: Candidozyma auris, TDG2512; Table 4, extended panel; 24 hours, ≥50% inhibition; read-out: MIC Candida auris TDG2512
Method in brief: (§3)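 Overnight starter cultures were diluted to OD600 0.01 and added to serially diluted compound (128 to 0.25 μg/mL) in MOPS-buffered RPMI with 2% glucose, pH 7.0, giving 0.5-5×10^5 cells/mL. After 24 h at 37 °C, OD530 was measured and the ≥50% inhibition endpoint taken as MIC.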

C. tropicalis NCPF8760 = experiment: as above; format: cell-based
Method in brief: as §3

C. auris TDG1912 = experiment: as above; format: cell-based; settings: Candidozyma auris, TDG1912; Table 4; 24 hours, ≥50% inhibition; read-out: MIC C. auris TDG1912
Method in brief: as §3

Candida auris TDG1102 = experiment: as above; format: cell-based; settings: Candidozyma auris, read-out: MIC Candida auris TDG1102
Method in brief: as §3

C. albicans NCPF3281 = experiment: as above; format: cell-based, Candida albicans; settings: NCPF3281, read-out: MIC C. albicans NCPF3281
Method in brief: as §3

C. parapsilosis NCPF3209 = experiment: microbe, parasite or virus in culture; format: cell-based, Candida parapsilosis; settings: Lodderomyces parapsilosis
Method in brief: as §1

C. glabrata NCPF8018 = experiment: Candida panel MIC, serial dilution in 96-well plates; format: cell-based, Candida glabrata; settings: Nakaseomyces glabratus
Method in brief: as §1

C. albicans 3363 = experiment: Candida albicans panel MIC; format: cell-based; settings: Table 6, Candida albicans panel
Experimental: (§4) The minimum inhibitory concentration of test compounds were determined in a panel of Candida species (see Table 4 below), using the a serial dilution method in 96-well plates using the following protocol.
(§5) Starter cultures of fungal strains to be tested were grown in 3 mL of RPMI 2% glucose media incubated at 37° C. with shaking at 200 rpm overnight. The culture media used was 900 mL H2O; 10.4 g RPMI 1640 (with L-glutamine and a pH indicator but without bicarbonate); 34.5 g MOPS and 18 g glucose. The pH of the media was adjusted to 7.0 with 1 M sodium hydroxide.
(§6) Solutions of the compound to be tested were prepared by dissolving the compound in DMSO and subsequently into media to the desired concentrations. 200 μL of compound solution was then added to the wells of the 96-well plate using a serial dilution method row-by row of the plate to give a compound concentration gradient across the plate of from 128 μg/mL to 0.25 μg/mL. The last two rows of each plate were control rows containing the culture media alone and the media plus fungi.
(§7) The fungi starter cultures were diluted 1:10 in water in cuvettes. This was then further diluted to an optical density (OD600) of 0.01 in media. 100 μL of the fungi was added to each well giving a starting concentration of fungus of 0.5-5×10^5/mL. One species of fungus was used on each plate. The plates were then held at 37° C. for 24 hours.
(§8) A plate reader was used to measure growth in each well at OD530 nm and the MIC was determined for each test compound. The MIC is defined as the lowest concentration giving rise to inhibition of ≥50% of that of the drug-free control well containing the fungus and media.
(§9) The compounds shown in Table 6 were tested against a further panel of Candida albicans.

C. albicans 3880 = experiment: Candida albicans panel MIC; format: cell-based; settings: Table 6, Candida albicans panel
Experimental: as §4, §5, §6, §7, §8, §9

C. albicans 8112 = experiment: Candida albicans panel MIC; format: cell-based; settings: Table 6, Candida albicans panel
Experimental: as §4, §5, §6, §7, §8, §9

C. albicans 3990 = experiment: Candida albicans panel MIC; format: cell-based; settings: Table 6, Candida albicans panel
Experimental: as §4, §5, §6, §7, §8, §9

C. albicans 3882 = experiment: Candida albicans panel MIC; format: cell-based; settings: Table 6, Candida albicans panel
Experimental: as §4, §5, §6, §7, §8, §9

C. albicans 3881 = experiment: Candida albicans panel MIC; format: cell-based; settings: Table 6, Candida albicans panel
Experimental: as §4, §5, §6, §7, §8, §9

C. albicans 3645 = experiment: Candida albicans panel MIC; format: cell-based; settings: Table 6, Candida albicans panel
Experimental: as §4, §5, §6, §7, §8, §9

panel of Candida species = experiment: Candida panel MIC, statements on the whole panel; format: cell-based; settings: in words
Experimental: as §4, §5, §6, §7, §8

C. auris strain TDG1912 = experiment: Galleria mellonella infection model, larval survival; format: in vivo; settings: G. mellonella infected with C. auris TDG1912; survival over 120 hours
Experimental: The effects of test compounds in-vivo was assessed using a Galleria mellonella infection model.
G. mellonella were injected in a proleg with 10 μL of C. auris strain TDG1912 (OD4) at a concentration of 1×10^6 cfu/10 μL using a Hamilton syringe and left for 30 minutes to recover from injection and to allow infection to begin. The G. mellonella were then injected with 10 μL of the compound of the invention at either 50 mg/kg (10% DMSO) or 20 mg/kg (4% DMSO) or PBS containing 10% DMSO as an infection-only control. 10 larvae were selected for each treatment, and the experiment was repeated 3 times for the test compound and fluconazole. Survival of larvae was monitored for a 5 day period and results are presented as % survival over 120 hours (see FIG. 1).

[1] = test system: Galleria mellonella larvae; experiment: Toxicity to larvae in the Galleria mellonella model; format: in vivo; settings: dose of 50 mg/kg
C. auris 8984 = experiment: Candida panel MIC, serial dilution in 96-well plates; format: cell-based, Candida auris; settings: Candidozyma auris, 8984; Table 4, extended panel; 24 hours, ≥50% inhibition; read-out: MIC C. auris 8984
Method in brief: as §2

C. auris 8977 = experiment: as above; format: cell-based, Candida auris; settings: Candidozyma auris, 8977; Table 4, extended panel; 24 hours, ≥50% inhibition; read-out: MIC C. auris 8977
Method in brief: as §2

C. auris 8971 = experiment: as above; format: cell-based, Candida auris; settings: Candidozyma auris, 8971; Table 4, extended panel; 24 hours, ≥50% inhibition; read-out: MIC C. auris 8971
Method in brief: as §2

[2] = NCPF3876, Table 4, common panel, 24 hours, ≥50% inhibition, read-out: MIC C. krusei NCPF3876
[3] = NCPF8760, Table 4, common panel, 24 hours, ≥50% inhibition, read-out: MIC C. tropicalis NCPF8760
[4] = Candida albicans, Table 4, common panel, 24 hours, ≥50% inhibition
[5] = Table 6, Candida albicans panel
[6] = NCPF3209, Table 4, common panel, 24 hours, ≥50% inhibition, read-out: MIC C. parapsilosis NCPF3209
[7] = NCPF8018, Table 4, common panel, 24 hours, ≥50% inhibition, read-out: MIC C. glabrata NCPF8018

Row | Compound | MIC (C. krusei NCPF3876; [2]) | MIC (Candida auris TDG2211) | MIC (Candida auris TDG2506) | MIC (Candida auris TDG2512) | MIC (C. tropicalis NCPF8760; [3]) | MIC (C. auris TDG1912) | MIC (C. albicans NCPF3281; [4]) | MIC (C. albicans NCPF3281; [5]) | MIC (C. parapsilosis NCPF3209; [6]) | MIC (C. glabrata NCPF8018; [7]) | MIC (C. albicans 3363) | MIC (C. albicans 3880) | MIC (C. albicans 8112) | MIC (C. albicans 3990) | MIC (C. albicans 3882) | MIC (C. albicans 3881) | MIC (C. albicans 3645) | other results
1 | N#Cc1ccc(-c2ccc(NC3CCN(CC(O)(Cn4cncn4)c4ccc(F)cc4F)CC3)cc2)cc1 (centres unmarked) [Example 2, 4′-((1-(2-(2,4-difluorophenyl)-2-hydroxy-3-(1H-1,2,4-triazol-1-yl)propyl)piperidin-4-yl)amino)-[1,1′-biphenyl]-4-carbonitrile] | 0.003 to 0.125 µg/mL (≈ 0.00583 to 0.243 µM) | 0.25 µg/mL (≈ 0.486 µM) | 0.003 to 0.15 µg/mL (≈ 0.00583 to 0.291 µM) | ≤ 0.003 µg/mL | 0.003 to 0.25 µg/mL (≈ 0.00583 to 0.486 µM) | 0.03 µg/mL (≈ 0.0583 µM) | ≤ 0.0039 µg/mL | ≤ 0.0039 µg/mL | ≤ 0.003 µg/mL | 0.125 µg/mL (≈ 0.243 µM) | 0.00781 to 0.125 µg/mL (≈ 0.0152 to 0.243 µM) | 0.00781 µg/mL (≈ 0.0152 µM) | 0.00195 to 0.00781 µg/mL (≈ 0.00379 to 0.0152 µM) | 0.0156 µg/mL (≈ 0.0303 µM) | 0.0313 µg/mL (≈ 0.0608 µM) | 0.0156 µg/mL (≈ 0.0303 µM) | 0.00391 µg/mL (≈ 0.0076 µM) | Effectiveness against the Aspergillus strains tested compared to fluconazole (Aspergillus strains): highly effective; MIC (Candida auris TDG1102; TDG1102, 24 h): 0.003 to 0.5 µg/mL (≈ 0.00583 to 0.972 µM); Activity against Candida auris including resistant strains (panel of Candida species): highly active
2 | OC(CN1CCC(Nc2ccc(OCCN3CCOCC3)cc2)CC1)(Cn1cncn1)c1ccc(F)cc1F (centres unmarked) [Example 6, 2-(2,4-Difluorophenyl)-1-(4-((4-(2-morpholinoethoxy)phenyl)amino)piperidin-1-yl)-3-(1H-1,2,4-triazol-1-yl)propan-2-ol] | 0.125 µg/mL (≈ 0.23 µM) | 0.5 µg/mL (≈ 0.921 µM) | 0.25 µg/mL (≈ 0.461 µM) | 0.015 µg/mL (≈ 0.0276 µM) | 0.008 µg/mL (≈ 0.0147 µM) | 0.125 µg/mL (≈ 0.23 µM) | 0.004 µg/mL (≈ 0.00737 µM) | ≤ 0.125 µg/mL | 0.015 µg/mL (≈ 0.0276 µM) | 0.25 µg/mL (≈ 0.461 µM) | 0.25 µg/mL (≈ 0.461 µM) | 0.25 µg/mL (≈ 0.461 µM) | 0.0156 µg/mL (≈ 0.0287 µM) | 0.25 µg/mL (≈ 0.461 µM) | 0.5 µg/mL (≈ 0.921 µM) | 0.5 µg/mL (≈ 0.921 µM) | 0.0156 µg/mL (≈ 0.0287 µM) | Protection against multi-drug resistant C. auris (larval survival) (C. auris strain TDG1912): statistically significant protection; MIC (C. krusei NCPF3876; NCPF3876, read-out: MIC C. Krusei NCPF3876): 0.125 µg/mL (≈ 0.23 µM); Toxicity to the larvae [1]: No toxicity; MIC (C. tropicalis NCPF8760; NCPF8760, read-out: MIC C. Tropicalis NCPF8760): 0.008 µg/mL (≈ 0.0147 µM); MIC (Candida auris TDG1102; TDG1102, Table 4, extended panel, 24 hours, ≥50% inhibition): 0.12 µg/mL (≈ 0.221 µM); MIC (C. parapsilosis NCPF3209; NCPF3209, read-out: MIC C. Parapsilosis NCPF3209): 0.015 µg/mL (≈ 0.0276 µM); MIC (C. glabrata NCPF8018; NCPF8018, read-out: MIC C. Glabrata NCPF8018): 2 to 4 µg/mL (≈ 3.69 to 7.37 µM); MIC (C. auris 8984): 0.125 µg/mL (≈ 0.23 µM); MIC (C. auris 8977): 0.06 µg/mL (≈ 0.111 µM); MIC (C. auris 8971): 0.03 µg/mL (≈ 0.0553 µM)
